Experimental findings from PubChem BioAssay AID330 (DTP/NCI, 2004) are described below.

The assay concerns P388 leukemia ip, CD2F1 mice, survival T/C. As to the kind of experiment: NCI In Vivo Anticancer Drug Screen. Data for tumor model P388 Leukemia (intraperitoneal) in CD2F1 (CDF1) mice. To be noted: endpoint: median survival time, higher = longer survival. In outline:
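Mice carrying the transplanted tumor received test compound or vehicle. Survival was recorded in each group, and the value is the treated-group measurement divided by that of the vehicle-treated control group.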

[1] abbreviates: dose: 50.0 mg/kg/injection, schedule: Q01DX005 (ip), vehicle: saline.
The mark [2] stands for this setting: dose: 100.0 mg/kg/injection, schedule: Q01DX005 (ip), vehicle: saline.
The mark [3] stands for this setting: dose: 200.0 mg/kg/injection, schedule: Q01DX005 (ip), vehicle: saline.
Setting [4] is: dose: 50.0 mg/kg/injection, schedule: Q01DX009 (ip), vehicle: saline with Tween-80.
[5] abbreviates: dose: 100.0 mg/kg/injection, schedule: Q01DX009 (ip), vehicle: saline with Tween-80.
[6] abbreviates: dose: 50.0 mg/kg/injection, schedule: Q01DX005 (ip), vehicle: saline with Tween-80.
Where [7] appears, read: dose: 100.0 mg/kg/injection, schedule: Q01DX005 (ip), vehicle: saline with Tween-80.
The mark [8] stands for this setting: dose: 200.0 mg/kg/injection, schedule: Q01DX005 (ip), vehicle: saline with Tween-80.
Where [9] appears, read: dose: 50.0 mg/kg/injection, schedule: Q01DX009 (ip), vehicle: Klucel (hydroxypropylcellulose) (HPC).
The mark [10] stands for this setting: dose: 100.0 mg/kg/injection, schedule: Q01DX009 (ip), vehicle: Klucel (hydroxypropylcellulose) (HPC).
Setting [11] is: dose: 200.0 mg/kg/injection, schedule: Q01DX009 (ip), vehicle: Klucel (hydroxypropylcellulose) (HPC).
The mark [12] stands for this setting: dose: 50.0 mg/kg/injection, schedule: Q01DX009 (ip), vehicle: other.
[13] abbreviates: dose: 100.0 mg/kg/injection, schedule: Q01DX009 (ip), vehicle: other.
[14] abbreviates: dose: 200.0 mg/kg/injection, schedule: Q01DX009 (ip), vehicle: other.
[15] abbreviates: dose: 400.0 mg/kg/injection, schedule: Q01DX009 (ip), vehicle: other.
The mark [16] stands for this setting: dose: 50.0 mg/kg/injection, schedule: Q04DX003 (ip), vehicle: saline.
[17] abbreviates: dose: 100.0 mg/kg/injection, schedule: Q04DX003 (ip), vehicle: saline.
Where [18] appears, read: dose: 200.0 mg/kg/injection, schedule: Q04DX003 (ip), vehicle: saline.
Setting [19] is: dose: 200.0 mg/kg/injection, schedule: Q01DX009 (ip), vehicle: saline with Tween-80.

Several values for one entry are separate records, joined by “and”; a condition that tells them apart may be missing. Equal entries are not always repeated. Toxic doses and inconclusive results are not listed.

As for `C[CH2][Ge]([c]1ccccc1)[c]1ccccc1.C[CH2][Ge]([c]1ccccc1)[c]1ccccc1.c1cc[c]([Ge]([O][Ge]([c]2ccccc2)[c]2ccccc2)[c]2ccccc2)cc1`, the T/C reads like this: under setting [1], 91 % of control; under setting [2], 91 % of control; under setting [3], 91 % of control.
As for `CCOC(=O)C1=CCC(n2cc(F)c(=O)[nH]c2=O)O1` (configuration not stated), the T/C is 98 % of control (dose: 50.0 mg/kg/injection, schedule: Q01DX009 (ip), vehicle: saline); 101 % of control (dose: 100.0 mg/kg/injection, schedule: Q01DX009 (ip), vehicle: saline); 99 % of control (dose: 200.0 mg/kg/injection, schedule: Q01DX009 (ip), vehicle: saline); 110 % of control (dose: 400.0 mg/kg/injection, schedule: Q01DX009 (ip), vehicle: saline).
With `O=[N+]([O-])c1ccc(-c2nc(CN3CCOCC3)cs2)s1`, the T/C is, setting by setting: (dose: 25.0 mg/kg/injection, schedule: Q01DX009 (ip), vehicle: saline with Tween-80) 98 % of control; under setting [4], 103 % of control; under setting [5], 106 % of control.
In the case of `CCC1(c2ccccc2)NN1C1CCCCC1` (configuration not stated), the T/C runs as follows: (dose: 6.25 mg/kg/injection, schedule: Q01DX005 (ip), vehicle: saline with Tween-80) 100 % of control; (dose: 12.5 mg/kg/injection, schedule: Q01DX005 (ip), vehicle: saline with Tween-80) 96 % of control; (dose: 25.0 mg/kg/injection, schedule: Q01DX005 (ip), vehicle: saline with Tween-80) 92 % of control; under setting [6], 96 % of control; under setting [7], 100 % of control; under setting [8], 105 % of control.
Turning to `CC(C)n1nnnc1-c1ccccc1`, the T/C is 94 % of control under setting [9], 94 % of control under setting [10] and 94 % of control under setting [11].
On to `COc1cc2c(cc1O)CC1c3c(cc(OC)c(O)c3C2)CCN1C` (configuration not stated), for which the T/C is, setting by setting: (dose: 12.5 mg/kg/injection, schedule: Q01DX001 (ip), vehicle: saline with Tween-80) 100 % of control; (dose: 25.0 mg/kg/injection, schedule: Q01DX001 (ip), vehicle: saline with Tween-80) 96 % of control; (dose: 50.0 mg/kg/injection, schedule: Q01DX001 (ip), vehicle: saline with Tween-80) 97 % of control; (dose: 100.0 mg/kg/injection, schedule: Q01DX001 (ip), vehicle: saline with Tween-80) 95 % of control.
As to `O=C1C(Cl)=C(Nc2ccc3c(c2NC2=C(Cl)C(=O)c4ccccc4C2=O)C(=O)c2ccccc2C3=O)C(=O)c2ccccc21`, the T/C (dose: 50.0 mg/kg/injection, schedule: Q01DX005 (ip), vehicle: Klucel (hydroxypropylcellulose) (HPC)) was 97 % of control and the T/C (dose: 100.0 mg/kg/injection, schedule: Q01DX005 (ip), vehicle: Klucel (hydroxypropylcellulose) (HPC)) was 99 % of control.
On to `O=C(O)/C=N/NS(=O)(=O)c1ccc(Cl)cc1`, for which the T/C is 101 % of control (dose: 6.25 mg/kg/injection, schedule: Q01DX009 (ip), vehicle: other); 122 % of control (dose: 12.5 mg/kg/injection, schedule: Q01DX009 (ip), vehicle: other); 159 % of control under setting [12]; 99 % of control under setting [13].
Turning to `CC(C)c1cc(C(C)C)c(S(=O)(=O)N/N=C2\C=CCC(C)(C)C2)c(C(C)C)c1`, the T/C is 87 % of control (dose: 50.0 mg/kg/injection, schedule: Q01DX009 (ip), vehicle: DMSO); 89 % of control (dose: 100.0 mg/kg/injection, schedule: Q01DX009 (ip), vehicle: DMSO); 97 % of control (dose: 200.0 mg/kg/injection, schedule: Q01DX009 (ip), vehicle: DMSO).
As for `CCOC(=O)c1ccc(NC(N)=O)cc1`, the T/C was 101 % of control (dose: 25.0 mg/kg/injection, schedule: Q01DX009 (ip), vehicle: other); 102 % of control under setting [12]; 98 % of control under setting [13]; 98 % of control under setting [14]; 93 % of control under setting [15].
Turning to `CCOC1=NC(C)C(C)N1` (configuration not stated), the T/C runs as follows: (dose: 25.0 mg/kg/injection, schedule: Q01DX001 (ip), vehicle: saline) 101 % of control; (dose: 50.0 mg/kg/injection, schedule: Q01DX001 (ip), vehicle: saline) 101 % of control; (dose: 100.0 mg/kg/injection, schedule: Q01DX001 (ip), vehicle: saline) 108 % of control and 97 % of control.
For the compound `CCCCCCCCCCCCCCCCCSc1c(O)c(O)c2cccnc2c1O` (tested in a mixture with another compound), the T/C by setting is: (dose: 60.0 mg/kg/injection, schedule: Q01DX005 (ip), vehicle: Klucel (hydroxypropylcellulose) (HPC)) 104 % of control; (dose: 120.0 mg/kg/injection, schedule: Q01DX005 (ip), vehicle: Klucel (hydroxypropylcellulose) (HPC)) 105 % of control.
Take `NC(=O)CSc1nnc2ccccn12`: the T/C reads like this: under setting [16], 92 % of control; under setting [17], 100 % of control; under setting [18], 104 % of control.
Regarding `CCOC(=O)c1ccc(NC)cc1`, the T/C runs as follows: under setting [4], 105 % of control; under setting [5], 102 % of control; under setting [19], 118 % of control.
As for `NC(=O)c1ccc(-c2csc(=S)[nH]2)s1`, the T/C is 100 % of control and 105 % of control under setting [4]; 101 % of control and 108 % of control under setting [5]; 96 % of control under setting [19].
For `CSc1nc(N)c(C#N)c(SC)c1C#N`, the T/C under setting [16] is 98 % of control, the T/C under setting [17] is 112 % of control and the T/C under setting [18] is 101 % of control.
Take `NC1(N2SC(S)=C3CCCC=C32)CCCCC1`: the T/C runs as follows: under setting [4], 97 % of control; under setting [5], 100 % of control; under setting [19], 105 % of control.
Turning to `[Cu+2].[O-]/N=C/c1ccc(O)c(O)c1[O-].[O-]/N=C/c1ccc(O)c(O)c1[O-]`, the T/C is, setting by setting: (dose: 60.0 mg/kg/injection, schedule: Q01DX005 (ip), vehicle: saline with Tween-80) 91 % of control; (dose: 120.0 mg/kg/injection, schedule: Q01DX005 (ip), vehicle: saline with Tween-80) 87 % of control; (dose: 240.0 mg/kg/injection, schedule: Q01DX005 (ip), vehicle: saline with Tween-80) 89 % of control.
In the case of `CN(C)C(c1cccnc1)C1COCOC1` (configuration not stated), the T/C by setting is: under setting [1], 109 % of control; under setting [2], 106 % of control; under setting [3], 98 % of control.
Regarding `O=C1CC2c3ccccc3CCN2C2=C1CCC2` (configuration not stated), the T/C by setting is: under setting [6], 96 % of control; under setting [7], 104 % of control.
As to `COC(=O)c1ccn2c1CCC2`, the T/C by setting is: (dose: 25.0 mg/kg/injection, schedule: Q01DX009 (ip), vehicle: Klucel (hydroxypropylcellulose) (HPC)) 91 % of control; under setting [9], 91 % of control; under setting [10], 95 % of control; under setting [11], 98 % of control; (dose: 400.0 mg/kg/injection, schedule: Q01DX009 (ip), vehicle: Klucel (hydroxypropylcellulose) (HPC)) 91 % of control.
In the case of `CC1CCC(C(C)C)C(NC(=O)c2ccccn2)C1` (configuration not stated), the T/C is 101 % of control (dose: 100.0 mg/kg/injection, schedule: Q04DX002 (ip), vehicle: Klucel (hydroxypropylcellulose) (HPC)); 90 % of control (dose: 200.0 mg/kg/injection, schedule: Q04DX002 (ip), vehicle: Klucel (hydroxypropylcellulose) (HPC)); 97 % of control (dose: 400.0 mg/kg/injection, schedule: Q04DX002 (ip), vehicle: Klucel (hydroxypropylcellulose) (HPC)).
Consider `CC(CC(C)C1CO1)C(=O)C(C)S(=O)(=O)c1ccccc1` (configuration not stated) (tested in a mixture with another compound), for which the T/C was 104 % of control under setting [6], 88 % of control under setting [7] and 102 % of control under setting [8].
On to `Cc1ccc(CNc2ccccc2)cc1`, for which the T/C was 100 % of control under setting [13], 100 % of control under setting [14] and 100 % of control under setting [15].
In the case of `c1ccc2c(c1)c1cccc3sc4cccc2c4c31`, the T/C was 99 % of control under setting [6], 96 % of control under setting [7] and 92 % of control under setting [8].
